Measurements published in PubChem BioAssay AID248 (DTP/NCI, 2004).
“And” between values parts separate entries of the source, which are not always exact repeats. Equal entries are not always repeated. Inconclusive results and toxic doses are left out. No stated cut-off is given here; in the data, active means T/C of 150% or more; inactive means T/C below 125%.

Tested on: L1210 leukemia ip in BDF1 mice, survival T/C
Assay: NCI In Vivo Anticancer Drug Screen. Data for tumor model L1210 Leukemia (intraperitoneal) in B6D2F1 (BDF1) mice
Conditions: endpoint: mean survival time, higher = longer survival
Procedure, shortened: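 Mice bearing the transplanted tumor received compound or vehicle. Survival of the treated group was divided by that of the vehicle-treated control group to give the ratio.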

[1] = dose: 25.0 mg/kg/injection, schedule: Q01DX009 (ip), vehicle: Klucel (hydroxypropylcellulose) (HPC)
[2] = dose: 25.0 mg/kg/injection, schedule: Q04DX003 (ip), vehicle: Klucel (hydroxypropylcellulose) (HPC)
[3] = dose: 50.0 mg/kg/injection, schedule: Q01DX009 (ip), vehicle: Klucel (hydroxypropylcellulose) (HPC)
[4] = dose: 50.0 mg/kg/injection, schedule: Q04DX003 (ip), vehicle: Klucel (hydroxypropylcellulose) (HPC)
[5] = dose: 100.0 mg/kg/injection, schedule: Q04DX003 (ip), vehicle: Klucel (hydroxypropylcellulose) (HPC)
[6] = dose: 100.0 mg/kg/injection, schedule: Q01DX009 (ip), vehicle: saline
[7] = dose: 200.0 mg/kg/injection, schedule: Q01DX009 (ip), vehicle: saline
[8] = dose: 400.0 mg/kg/injection, schedule: Q01DX009 (ip), vehicle: saline
[9] = dose: 100.0 mg/kg/injection, schedule: Q01DX009 (ip), vehicle: Klucel (hydroxypropylcellulose) (HPC)
[10] = dose: 100.0 mg/kg/injection, schedule: Q01DX001 (ip), vehicle: saline
[11] = dose: 100.0 mg/kg/injection, schedule: Q04DX003 (ip), vehicle: saline
[12] = dose: 200.0 mg/kg/injection, schedule: Q01DX001 (ip), vehicle: saline
[13] = dose: 200.0 mg/kg/injection, schedule: Q04DX003 (ip), vehicle: saline
[14] = dose: 400.0 mg/kg/injection, schedule: Q01DX001 (ip), vehicle: saline
[15] = dose: 400.0 mg/kg/injection, schedule: Q04DX003 (ip), vehicle: saline
[16] = dose: 100.0 mg/kg/injection, schedule: Q01DX009 (ip), vehicle: saline with Tween-80
[17] = dose: 200.0 mg/kg/injection, schedule: Q01DX009 (ip), vehicle: saline with Tween-80
[18] = dose: 200.0 mg/kg/injection, schedule: Q01DX009 (ip), vehicle: Klucel (hydroxypropylcellulose) (HPC)
[19] = dose: 400.0 mg/kg/injection, schedule: Q01DX009 (ip), vehicle: Klucel (hydroxypropylcellulose) (HPC)

Measured: T/C

CCCCCCCCC(=O)N1CCOCC1
inactive: dose: 4.68 mg/kg/injection, schedule: Q01DX009 (ip), vehicle: saline 97 % of control | dose: 9.37 mg/kg/injection, schedule: Q01DX009 (ip), vehicle: saline 97 % of control | dose: 12.5 mg/kg/injection, schedule: Q04DX003 (ip), vehicle: Klucel (hydroxypropylcellulose) (HPC) 99 % of control | dose: 18.75 mg/kg/injection, schedule: Q01DX009 (ip), vehicle: saline 97 % of control | [1] 104 % of control | [2] 103 % of control and 104 % of control | dose: 37.5 mg/kg/injection, schedule: Q01DX009 (ip), vehicle: saline 95 % of control | [3] 96 % of control | [4] 101 % of control | [5] 92 % of control

CCOC(=O)COc1ccccc1Cl
inactive: dose: 1.56 mg/kg/injection, schedule: Q04DX002 (ip), vehicle: Klucel (hydroxypropylcellulose) (HPC) 115 % of control | dose: 3.13 mg/kg/injection, schedule: Q04DX002 (ip), vehicle: Klucel (hydroxypropylcellulose) (HPC) 105 % of control | dose: 6.25 mg/kg/injection, schedule: Q04DX002 (ip), vehicle: Klucel (hydroxypropylcellulose) (HPC) 108 % of control | dose: 12.5 mg/kg/injection, schedule: Q04DX002 (ip), vehicle: Klucel (hydroxypropylcellulose) (HPC) 106 % of control | dose: 25.0 mg/kg/injection, schedule: Q04DX002 (ip), vehicle: Klucel (hydroxypropylcellulose) (HPC) 95 % of control | dose: 50.0 mg/kg/injection, schedule: Q04DX002 (ip), vehicle: Klucel (hydroxypropylcellulose) (HPC) 97 % of control

CCOP(=O)(OCC)N(C(=O)O)C1CCCCC1
inactive: dose: 50.0 mg/kg/injection, schedule: Q01DX009 (ip), vehicle: saline 96 % of control | [6] 109 % of control | [7] 108 % of control | [8] 105 % of control

COC(=O)C(N=Nc1ccc(C)cc1)C(C)=O (stereo unspecified)
inactive: [1] 97 % of control | [3] 94 % of control | [9] 89 % of control

CCOC(=O)C1CC2(Cl)C(Cl)=C(Cl)C1(Cl)C2(Cl)Cl (stereo unspecified)
inactive: [10] 98 % of control | [11] 94 % of control | [12] 93 % of control | [13] 94 % of control | [14] 98 % of control | [15] 93 % of control

CCCCOC(=O)C1=C(C(=O)OCCCC)CCCC1
inactive: [16] 98 % of control | [17] 104 % of control

Cc1ccc(S(=O)(=O)OCC2C3C=CC(c4ccccc43)C2COS(=O)(=O)c2ccc(C)cc2)cc1 (stereo unspecified)
inactive: dose: 75.0 mg/kg/injection, schedule: Q01DX009 (ip), vehicle: saline with Tween-80 96 % of control | dose: 150.0 mg/kg/injection, schedule: Q01DX009 (ip), vehicle: saline with Tween-80 91 % of control | dose: 300.0 mg/kg/injection, schedule: Q01DX009 (ip), vehicle: saline with Tween-80 90 % of control

CCOC(=O)NCC(C)(C)C
inactive: [10] 104 % of control | [12] 107 % of control | [14] 93 % of control

c1ccc2c3c(ccc2c1)Sc1ccc2ccccc2c1N3
inactive: [6] 102 % of control | [11] 97 % of control | [7] 98 % of control | [13] 111 % of control | [8] 93 % of control | [15] 95 % of control

Cc1cc(C)c(CC(C)(CO)CO)c(C)c1CC(C)(CO)CO
inactive: [9] 107 % of control | [18] 98 % of control | [19] 96 % of control

CCC1=C/C(=C\c2ccc3c(c2)OCO3)C(=O)S1
inactive: dose: 200.0 mg/kg/injection, schedule: Q04DX002 (ip), vehicle: saline with Tween-80 89 % of control | dose: 400.0 mg/kg/injection, schedule: Q04DX002 (ip), vehicle: saline with Tween-80 89 % of control

Nc1c(C(=O)O)cccc1C(=O)O
inactive: [16] 98 % of control | dose: 100.0 mg/kg/injection, schedule: Q04DX003 (ip), vehicle: saline with Tween-80 110 % of control | [17] 107 % of control | dose: 200.0 mg/kg/injection, schedule: Q04DX003 (ip), vehicle: saline with Tween-80 108 % of control | dose: 400.0 mg/kg/injection, schedule: Q01DX009 (ip), vehicle: saline with Tween-80 107 % of control | dose: 400.0 mg/kg/injection, schedule: Q04DX003 (ip), vehicle: saline with Tween-80 96 % of control

CCC(SC(CC)C(=O)O)C(=O)O (stereo unspecified)
inactive: [10] 98 % of control | [12] 94 % of control

O=CO
inactive: [10] 100 % of control | [12] 98 % of control | [14] 93 % of control

C=CC(=O)N1c2ccccc2N(C(=O)C=C)C(C)C1C (stereo unspecified)
inactive: [10] 112 % of control | [12] 104 % of control | [14] 98 % of control

CN(C1CCCCC1)C1CCCCC1
inactive: dose: 6.25 mg/kg/injection, schedule: Q01DX009 (ip), vehicle: Klucel (hydroxypropylcellulose) (HPC) 100 % of control | dose: 12.5 mg/kg/injection, schedule: Q01DX009 (ip), vehicle: Klucel (hydroxypropylcellulose) (HPC) 91 % of control | [1] 96 % of control and 107 % of control | [2] 97 % of control | [4] 102 % of control | dose: 75.0 mg/kg/injection, schedule: Q01DX001 (ip), vehicle: saline 108 % of control | [5] 97 % of control | dose: 150.0 mg/kg/injection, schedule: Q01DX001 (ip), vehicle: saline 109 % of control

N#Cc1c(N)sc(N)c1C#N
inactive: [9] 96 % of control | [5] 100 % of control | [18] 89 % of control | dose: 200.0 mg/kg/injection, schedule: Q04DX003 (ip), vehicle: Klucel (hydroxypropylcellulose) (HPC) 98 % of control | [19] 96 % of control | dose: 400.0 mg/kg/injection, schedule: Q04DX003 (ip), vehicle: Klucel (hydroxypropylcellulose) (HPC) 98 % of control

C(=N\Nc1nc2ccccc2s1)/c1ccc(/C=N/Nc2nc3ccccc3s2)cc1
inactive: [9] 96 % of control | [18] 96 % of control | [19] 104 % of control

O=C(O)COc1c(Cl)cc(Cl)cc1Cl
inactive: dose: 100.0 mg/kg/injection, schedule: Q04DX002 (ip), vehicle: Klucel (hydroxypropylcellulose) (HPC) 100 % of control | dose: 200.0 mg/kg/injection, schedule: Q04DX002 (ip), vehicle: Klucel (hydroxypropylcellulose) (HPC) 100 % of control | dose: 400.0 mg/kg/injection, schedule: Q04DX002 (ip), vehicle: Klucel (hydroxypropylcellulose) (HPC) 96 % of control

Nc1ncnc2c1ncn2C1OC(COP(=O)(O)O)C(O)C1O (stereo unspecified)
inactive: dose: 9.4 mg/kg/injection, schedule: Q03HX016 (ip), vehicle: water 108 % of control | dose: 9.4 mg/kg/injection, schedule: Q03HX024 (ip), vehicle: water 104 % of control | dose: 18.8 mg/kg/injection, schedule: Q03HX016 (ip), vehicle: water 108 % of control | dose: 18.8 mg/kg/injection, schedule: Q03HX024 (ip), vehicle: water 106 % of control | dose: 37.5 mg/kg/injection, schedule: Q03HX016 (ip), vehicle: water 108 % of control | dose: 37.5 mg/kg/injection, schedule: Q03HX024 (ip), vehicle: water 110 % of control | dose: 75.0 mg/kg/injection, schedule: Q03HX016 (ip), vehicle: water 116 % of control | dose: 75.0 mg/kg/injection, schedule: Q03HX024 (ip), vehicle: water 115 % of control | dose: 100.0 mg/kg/injection, schedule: Q01DX005 (ip), vehicle: saline 98 % of control | dose: 200.0 mg/kg/injection, schedule: Q01DX005 (ip), vehicle: saline 98 % of control

c1ccc(NC2CCCCC2)nc1
inactive: dose: 100.0 mg/kg/injection, schedule: Q04DX003 (ip), vehicle: gum acacia 95 % of control | dose: 200.0 mg/kg/injection, schedule: Q04DX003 (ip), vehicle: gum acacia 98 % of control | dose: 400.0 mg/kg/injection, schedule: Q04DX003 (ip), vehicle: gum acacia 96 % of control

N#CC1CS(=O)(=O)C1
inactive: [6] 108 % of control | [11] 106 % of control | [7] 103 % of control | [13] 101 % of control | [15] 102 % of control

c1ccc2c(c1)CC1c3ccccc3CC21 (stereo unspecified)
inactive: [10] 109 % of control | [12] 103 % of control | [14] 98 % of control

CC(C)(C)CC(C)(C)c1ccc(OCCOc2ccc(C(N)=O)cc2[N+](=O)[O-])cc1
inactive: [11] 94 % of control | [13] 105 % of control | [15] 97 % of control
